2 compounds from article PMC9599246 (2022) can be followed below.

SMILES strings stand for the structures.

The subject of the assay is fl-2CS1 (DNA, aptamer) GAGAGGTCAGATGATGCACTAGGGTTACGAGACCACGCGGTACCCTATGCGTGCTAC
Nature of the assay: ITC. The conditions noted are these: none added; 0.1 M Tris-HCl pH 7.4, 1% DMSO, 25 °C; 125 μM toxin in syringe, 5 μM aptamer in cell.

Consider `C[C@@H]1Cc2c(Cl)cc(C(=O)N[C@@H](Cc3ccccc3)C(=O)O)c(O)c2C(=O)O1`, for which the binding entry is recorded as “no”. The same measure for `CCCC[C@@H](C)[C@@H](OC(=O)C[C@@H](CC(=O)O)C(=O)O)[C@H](C[C@@H](C)C[C@H](O)CCCC[C@@H](O)C[C@H](O)[C@H](C)N)OC(=O)C[C@@H](CC(=O)O)C(=O)O`: “no”.
